According to article PMC11859184, “Synthesis and Evaluation of ^68Ga- and ^177Lu-Labeled [diF-Pro^14]Bombesin(6−14) Analogs for Detection and Radioligand Therapy of Gastrin-Releasing Peptide Receptor-Expressing Cancer” (Pharmaceuticals, 2025):

Experiments:
PC-3 tumor-bearing mice [1] = experiment: Ex vivo biodistribution of 68Ga-labeled tracers in PC-3 tumor-bearing mice; conditions: 1 h pi; for reduction of average tumor uptake by co-injection of blocking agent: 100 µg blocking agent
Procedure: PET/CT imaging and biodistribution studies were conducted using male NOD.Cg-Rag1^tm1Mom Il2rg^tm1Wjl/SzJ (NRG) mice following previously published procedures. The studies were carried out in compliance with the guidelines established by the Canadian Council on Animal Care and approved by Animal Ethics Committee of the University of British Columbia (protocol number A20-0113, approved on 30 September 2022). The mice were anaesthetized and subcutaneously implanted with 5 × 10^6 PC-3 cells (100 µL; 1:1 PBS/Matrigel) behind the left shoulder. PET/CT imaging and biodistribution studies were performed once the tumors reached a diameter of 5–8 mm, typically after approximately 4 weeks of growth.
For ex vivo biodistribution studies, the mice were injected with the ^68Ga-labeled tracer (2–4 MBq) via a lateral caudal tail vein. For blocking [^68Ga]Ga-LW02060, the mice were co-injected with 100 μg of [D-Phe^6,Leu-NHEt^13,des-Met^14]Bombesin(6–14). For blocking [^68Ga]Ga-LW02080, the mice were co-injected with 100 μg of its nonradioactive standard Ga-LW02080. At 1 h pi, the mice were euthanized by CO2 inhalation. Blood and organs/tissues of interest were collected, weighed, and counted using a gamma counter.

[2] = In vivo stability study (radio-HPLC of plasma and urine); conditions: NRG mice, 15 min pi; for remaining intact in plasma: n = 3
Procedure: For in vivo stability studies, [^68Ga]Ga-LW02060 or [^68Ga]Ga -LW02080 (5.23–12.9 MBq) was injected into healthy male NRG mice (n = 3) tough a lateral caudal tail vein. At 15 min pi, mice were anaesthetized and euthanized, followed by collection of the urine and blood samples. The plasma was extracted from whole blood by adding an equal volume of CH3CN, followed by vortexing, centrifugation, and collection of the supernatant. The plasma and urine samples were analyzed via radio-HPLC.

PC-3 tumor-bearing mice [3] = experiment: Ex vivo biodistribution of 177Lu-labeled ligands in PC-3 tumor-bearing mice; conditions: 1 h pi, 100 µg [D-Phe6,Leu-NHEt13,des-Met14]Bombesin(6-14)
Procedure: SPECT/CT imaging was conducted using an MI Labs (Houten, The Netherlands) U-SPECT-II/CT scanner with a custom-made ultra-high sensitivity big mouse collimator (2 mm pinhole size) following published procedure. The experiments were obtained in accordance with the same protocol established in the PET/CT imaging and ex vivo biodistributions section. The mice were used for SPECT/CT imaging and ex vivo biodistributions studies once the tumors reached a diameter of 5–8 mm. PC-3 tumor-bearing mice were sedated (2.5% isoflurane in O2) and injected with 31.4–36.9 MBq of the ^177Lu-labeled ligand through a lateral caudal tail vein. The mouse was imaged at 1, 4, 24, 72, and 120 h pi. At each time point, a 5 min CT scan was performed with 615 μA and 60 kV parameters for localization and attenuation, followed by two 30 min static SPECT scans in list mode with an energy window centered around 208 keV. The U-SPECT II software was used to reconstruct data, and the images were decay corrected to the time of injection with PMOD v 3.402 (PMOD Technologies GmbH, Fallanden, Switzerland).
For ex vivo biodistribution studies, the mice were injected with ~3–5 MBq of the ^177Lu-labeled ligand (n = 5). At 1, 4, 24, 72, and 120 h post-injection, the mice were anesthetized with 2% isoflurane, euthanized by CO2 inhalation, and the tissues/organs of interest were […] for radioactivity counting. The blocking study was performed at 1 h pi via co-injection of the ^177Lu-labeled ligand with 100 μg of [D-Phe^6,Leu-NHEt^13,des-Met^14]Bombesin(6–14).

GRPR = target: T1, GRPR (Homo sapiens, UniProt P30550); experiment: Fluorometric intracellular calcium release assay using PC-3 cells; type: cell-based; conditions: 50 nM ligand, n = 4
T1 construct: host or cells: PC-3 cells
Procedure: The agonist/antagonist characteristics of LW02060, Ga-LW02060, Lu-LW02060, LW02080, Ga-LW02080, and Lu-LW02080 were determined following published procedures. The PC-3 cells were obtained from ATCC (via Cedarlane, Burlington, ON, Canada). A 96-well clear bottom black plate was seeded with 5 × 10^4 PC-3 cells in 100 μL growth media per well 24 h before the assay. The loading buffer (100 μL/well) containing a calcium-sensitive dye (FLIPR Calcium 6 assay kit from Molecular Devices, San Jose, CA, USA) was added into the 96-well plate, followed by 1 h incubation at 37 °C. The plate was then transferred into a FlexStation 3 microplate reader (Molecular Devices, San Jose, CA, USA). LW02060 (50 nM), Ga-LW02060 (50 nM), Lu-LW02060 (50 nM), LW02080 (50 nM), Ga-LW02080 (50 nM), Lu-LW02080 (50 nM), [D-Phe^6,Leu-NHEt^13,des-Met^14]Bombesin(6–14) (50 nM, antagonist control), bombesin (50 nM, agonist control), adenosine triphosphate (ATP, 50 nM, positive control), or DPBS (blank control) was added, and the fluorescent signals were measured for 2 min (λEx = 485 nm; λEm = 525 nm; n = 4). The relative fluorescent units (RFU = max − min) were calculated to determine the agonistic/antagonistic characteristics of LW02060, Ga-LW02060, Lu-LW02060, LW02080, Ga-LW02080, and Lu-LW02080, respectively.

T1 sequence (P30550 whole entry): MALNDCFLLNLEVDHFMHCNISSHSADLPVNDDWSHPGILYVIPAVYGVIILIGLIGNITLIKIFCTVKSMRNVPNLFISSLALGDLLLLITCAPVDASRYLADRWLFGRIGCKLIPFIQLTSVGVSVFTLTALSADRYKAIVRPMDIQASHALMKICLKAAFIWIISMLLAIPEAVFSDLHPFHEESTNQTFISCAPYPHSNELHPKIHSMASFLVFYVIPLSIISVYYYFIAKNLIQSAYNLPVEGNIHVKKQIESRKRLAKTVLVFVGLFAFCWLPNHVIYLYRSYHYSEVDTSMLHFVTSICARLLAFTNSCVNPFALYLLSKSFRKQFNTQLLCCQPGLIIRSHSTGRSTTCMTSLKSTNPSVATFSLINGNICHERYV

| Molecule | uptake in all other collected organs/tissues (except tumor xenografts and kidneys) (PC-3 tumor-bearing mice [1]) | reduction of average tumor uptake by co-injection of blocking agent (PC-3 tumor-bearing mice [1]) | intact tracer in urine [2] | remaining intact in plasma [2] | reduction of tumor uptake by co-injection of blocking agent (PC-3 tumor-bearing mice [3]) | intracellular calcium release (GRPR) | other results |
| --- | --- | --- | --- | --- | --- | --- | --- |
| CC(C)C[C@H](NC(=O)[C@H](Cc1cnc[nH]1)N(C)C(=O)CNC(=O)[C@@H](NC(=O)[C@H](C)NC(=O)[C@H](Cc1c[nH]c2ccccc12)NC(=O)[C@H](CCC(N)=O)NC(=O)[C@@H](Cc1ccccc1)NC(=O)CN1CCC(NC(=O)CN2CCN(CC(=O)O)CCN(CC(=O)O)CCN(CC(=O)O)CC2)CC1)C(C)(C)C)C(=O)N1CC(F)(F)C[C@H]1C(N)=O [[^68Ga]Ga-LW02060] [metal not drawn] | lower than 1 %ID/g | 64% | No intact tracer was detected | > 99% | – | – | tumor uptake relative to [68Ga]Ga-LW02080 (PC-3 tumor-bearing mice [1]): 2.3 fold; tumor uptake relative to previously reported [68Ga]Ga-LW02056 (PC-3 tumor-bearing mice [1]): 1.9 fold |
| CC(C)C[C@@H](CN1CC(F)(F)C[C@H]1C(N)=O)NC(=O)[C@H](Cc1c[nH]cn1)NC(=O)CN(C)C(=O)[C@@H](NC(=O)[C@H](C)NC(=O)[C@H](Cc1c[nH]c2ccccc12)NC(=O)[C@H](CCC(N)=O)NC(=O)[C@@H](Cc1ccccc1)NC(=O)CN1CCC(NC(=O)CN2CCN(CC(=O)O)CCN(CC(=O)O)CCN(CC(=O)O)CC2)CC1)C(C)C [[^68Ga]Ga-LW02080] [metal not drawn] | lower than 1 %ID/g | 77% | No intact tracer was detected | 87.4 ± 5.34% | – | – | – |
| CC(C)C[C@H](NC(=O)[C@H](Cc1cnc[nH]1)N(C)C(=O)CNC(=O)[C@@H](NC(=O)[C@H](C)NC(=O)[C@H](Cc1c[nH]c2ccccc12)NC(=O)[C@H](CCC(N)=O)NC(=O)[C@@H](Cc1ccccc1)NC(=O)CN1CCC(NC(=O)CN2CCN(CC(=O)O)CCN(CC(=O)O)CCN(CC(=O)O)CC2)CC1)C(C)(C)C)C(=O)N1CC(F)(F)C[C@H]1C(N)=O [[^177Lu]Lu-LW02060] [metal not drawn] | – | – | – | – | 66% | – | reduction of pancreas uptake by co-injection of blocking agent (PC-3 tumor-bearing mice [3]): 81%; reduction of small intestine uptake by co-injection of blocking agent (PC-3 tumor-bearing mice [3]): 66%; reduction of stomach uptake by co-injection of blocking agent (PC-3 tumor-bearing mice [3]): 72% |
| CC(C)C[C@@H](CN1CC(F)(F)C[C@H]1C(N)=O)NC(=O)[C@H](Cc1c[nH]cn1)NC(=O)CN(C)C(=O)[C@@H](NC(=O)[C@H](C)NC(=O)[C@H](Cc1c[nH]c2ccccc12)NC(=O)[C@H](CCC(N)=O)NC(=O)[C@@H](Cc1ccccc1)NC(=O)CN1CCC(NC(=O)CN2CCN(CC(=O)O)CCN(CC(=O)O)CCN(CC(=O)O)CC2)CC1)C(C)C [[^177Lu]Lu-LW02080] [metal not drawn] | – | – | – | – | 64% | – | – |
| [D-Phe^6,Leu-NHEt^13,des-Met^14]Bombesin(6–14) [reference compound] | – | – | – | – | – | 16.6 ± 3.84 RFU | – |
| bombesin [reference compound] | – | – | – | – | – | 371 ± 17.9 RFU | – |
